Reference: PubChem BioAssay AID1963829 (Molecular Pharmacology Branch, DTP, NCI, 2024)
pIC50: −log10 of the molar value.

Test system: 935938-334-R-J1-PDC complex spheroid viability
Assay: Anticancer human tumor 935938-334-R-J1-PDC patient-derived small intestine adenocarcinoma cell line growth inhibition [POLQ]
Conditions: for pIC50: curve of first compound; for viability, T/C: stronger effect = lower value
Summary of the method: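 Growth inhibition in 3D: complex spheroids (tumor PDC, HUVEC, MSC) treated with POLQ inhibitor combinations; where Cmax unknown, highest tested concentration 10 microM, except SN-38 at 1 microM.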

[1] = second compound 0.0316 µM, first compound 0.0316 µM
[2] = second compound 0.0316 µM, first compound 0.1 µM
[3] = second compound 0.0316 µM, first compound 0.316 µM
[4] = second compound 0.0316 µM, first compound 1 µM
[5] = second compound 0.0316 µM, first compound 3.16 µM
[6] = second compound 0.0316 µM, first compound 10 µM
[7] = second compound 0.1 µM, first compound 0.0316 µM
[8] = second compound 0.1 µM, first compound 0.1 µM
[9] = second compound 0.1 µM, first compound 0.316 µM
[10] = second compound 0.1 µM, first compound 1 µM
[11] = second compound 0.1 µM, first compound 3.16 µM
[12] = second compound 0.1 µM, first compound 10 µM
[13] = second compound 0.316 µM, first compound 0.0316 µM
[14] = second compound 0.316 µM, first compound 0.1 µM
[15] = second compound 0.316 µM, first compound 0.316 µM
[16] = second compound 0.316 µM, first compound 1 µM
[17] = second compound 0.316 µM, first compound 3.16 µM
[18] = second compound 0.316 µM, first compound 10 µM
[19] = second compound 1 µM, first compound 0.0316 µM
[20] = second compound 1 µM, first compound 0.1 µM
[21] = second compound 1 µM, first compound 0.316 µM
[22] = second compound 1 µM, first compound 1 µM
[23] = second compound 1 µM, first compound 3.16 µM
[24] = second compound 1 µM, first compound 10 µM
[25] = second compound 3.16 µM, first compound 0.0316 µM
[26] = second compound 3.16 µM, first compound 0.1 µM
[27] = second compound 3.16 µM, first compound 0.316 µM
[28] = second compound 3.16 µM, first compound 1 µM
[29] = second compound 3.16 µM, first compound 3.16 µM
[30] = second compound 3.16 µM, first compound 10 µM
[31] = second compound 10 µM, first compound 0.0316 µM
[32] = second compound 10 µM, first compound 0.1 µM
[33] = second compound 10 µM, first compound 0.316 µM
[34] = second compound 10 µM, first compound 1 µM
[35] = second compound 10 µM, first compound 3.16 µM
[36] = second compound 10 µM, first compound 10 µM
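Further: spheroids exposed to drugs for seven days before viability read.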
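Wherever viability, T/C is given: 100% = DMSO vehicle control wells.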

COc1cccc2c1C(=O)c1c(O)c3c(c(O)c1C2=O)CC(O)(C(=O)CO)CC3OC1CC(N)C(O)C(C)O1 (stereo unspecified) + Cc1cccc(N(C)C(=O)C2C(O)CCN2c2nc(C)cc(C(F)(F)F)c2C#N)c1
pIC50 (second compound 0.0316 µM): 7.26
pIC50 (second compound 0.1 µM): 7.06
pIC50 (second compound 0.316 µM): 7.28
pIC50 (second compound 1 µM): 7.12
pIC50 (second compound 3.16 µM): 7.15
pIC50 (second compound 10 µM): > 7.50
viability, T/C [1]: 60.2%
viability, T/C [2]: 35.3%
viability, T/C [3]: 34.6%
viability, T/C [4]: 21.2%
viability, T/C [5]: 7.49%
viability, T/C [6]: 4.38%
viability, T/C [7]: 63.8%
viability, T/C [8]: 48.5%
viability, T/C [9]: 31.6%
viability, T/C [10]: 23.7%
viability, T/C [11]: 7.55%
viability, T/C [12]: 3.7%
viability, T/C [13]: 56.5%
viability, T/C [14]: 41.8%
viability, T/C [15]: 26.8%
viability, T/C [16]: 19.7%
viability, T/C [17]: 8.13%
viability, T/C [18]: 5.68%
viability, T/C [19]: 75.8%
viability, T/C [20]: 34.2%
viability, T/C [21]: 31.4%
viability, T/C [22]: 19.3%
viability, T/C [23]: 5.12%
viability, T/C [24]: 5.59%
viability, T/C [25]: 63.8%
viability, T/C [26]: 39.4%
viability, T/C [27]: 35.3%
viability, T/C [28]: 19.8%
viability, T/C [29]: 2.97%
viability, T/C [30]: 4.99%
viability, T/C [31]: 49.4%
viability, T/C [32]: 33.8%
viability, T/C [33]: 37.7%
viability, T/C [34]: 16.8%
viability, T/C [35]: 5.04%
viability, T/C [36]: 5.34%

CC1COCCN1c1cc(C2(O)CC3CCC(C2)O3)c2cnn(-c3ccn[nH]3)c2n1 (stereo unspecified) + COC1C(OC(N)=O)C(O)C(Oc2ccc3c(O)c(NC(=O)c4ccc(O)c(CC=C(C)C)c4)c(=O)oc3c2C)OC1(C)C
pIC50 (second compound 0.0316 µM): 6.61
pIC50 (second compound 0.1 µM): 6.68
pIC50 (second compound 0.316 µM): 6.77
pIC50 (second compound 1 µM): 6.67
pIC50 (second compound 3.16 µM): 6.75
pIC50 (second compound 10 µM): 7.01
viability, T/C [1]: 82.5%
viability, T/C [2]: 71.2%
viability, T/C [3]: 43.8%
viability, T/C [4]: 20.1%
viability, T/C [5]: 14.7%
viability, T/C [6]: 8.68%
viability, T/C [7]: 114%
viability, T/C [8]: 71.9%
viability, T/C [9]: 36.4%
viability, T/C [10]: 21.1%
viability, T/C [11]: 18.7%
viability, T/C [12]: 9.26%
viability, T/C [13]: 75.7%
viability, T/C [14]: 65.8%
viability, T/C [15]: 30.4%
viability, T/C [16]: 21.5%
viability, T/C [17]: 16.8%
viability, T/C [18]: 11.5%
viability, T/C [19]: 79.1%
viability, T/C [20]: 78.6%
viability, T/C [21]: 35.8%
viability, T/C [22]: 23.2%
viability, T/C [23]: 13.5%
viability, T/C [24]: 11.3%
viability, T/C [25]: 102%
viability, T/C [26]: 63.3%
viability, T/C [27]: 36.5%
viability, T/C [28]: 20.9%
viability, T/C [29]: 15.1%
viability, T/C [30]: 10.2%
viability, T/C [31]: 88.2%
viability, T/C [32]: 48.9%
viability, T/C [33]: 27.9%
viability, T/C [34]: 16.6%
viability, T/C [35]: 15.7%
viability, T/C [36]: 8.92%

CNCc1ccc(-c2[nH]c3cc(F)cc4c3c2CCNC4=O)cc1 + Cc1cccc(N(C)C(=O)C2C(O)CCN2c2nc(C)cc(C(F)(F)F)c2C#N)c1
pIC50 (second compound 0.0316 µM): < 5.00
pIC50 (second compound 0.1 µM): < 5.00
pIC50 (second compound 0.316 µM): < 5.00
pIC50 (second compound 1 µM): < 5.00
pIC50 (second compound 3.16 µM): < 5.00
pIC50 (second compound 10 µM): < 5.00
viability, T/C [1]: 90.2%
viability, T/C [2]: 97.7%
viability, T/C [3]: 101%
viability, T/C [4]: 115%
viability, T/C [5]: 108%
viability, T/C [6]: 81.8%
viability, T/C [7]: 107%
viability, T/C [8]: 64.9%
viability, T/C [9]: 78.2%
viability, T/C [10]: 94.9%
viability, T/C [11]: 90.6%
viability, T/C [12]: 76.8%
viability, T/C [13]: 85.5%
viability, T/C [14]: 94.5%
viability, T/C [15]: 97.2%
viability, T/C [16]: 97.2%
viability, T/C [17]: 125%
viability, T/C [18]: 99.9%
viability, T/C [19]: 106%
viability, T/C [20]: 78.6%
viability, T/C [21]: 88.5%
viability, T/C [22]: 100%
viability, T/C [23]: 93.2%
viability, T/C [24]: 112%
viability, T/C [25]: 88.9%
viability, T/C [26]: 118%
viability, T/C [27]: 88.1%
viability, T/C [28]: 102%
viability, T/C [29]: 133%
viability, T/C [30]: 99.5%
viability, T/C [31]: 122%
viability, T/C [32]: 80.7%
viability, T/C [33]: 96.2%
viability, T/C [34]: 83.2%
viability, T/C [35]: 121%
viability, T/C [36]: 102%
